# “And” between values parts separate entries of the source, which are not always exact repeats. Equal entries are not always repeated.
# Experiments:
# Type in all cases: cell-based
# HCT116 cells = experiment: Gene expression analysis by qPCR array (TaqMan Array Human Molecular Mechanisms of Cancer); conditions: HCT116, 12 h, DOX 1 μM, PL 10 μM, 1 2.5 μM, 2 5 μM, negative control RQ = 1.0
# Description: HCT116 cells were plated in bottles tissue culture (7x10^4 cells/mL). After 12h of incubation with the complexes, total RNA was isolated from the cells using the RNeasy Plus mini kit (Qiagen, Hilden, Germany) according to the manufacturer’s instructions. The RNA was evaluated by fluorimetry (QuBit™, Life Technologies, Camarillo, CA, EUA). RNA reverse transcription was performed using Superscript VILO™ (Invitrogen Corporation, Waltham, MA, USA). A 96-well plate TaqMan® Array Human Molecular Mechanisms of Cancer (ID 4418806, Applied Biosystems™, Foster City, CA, EUA) was used for the gene expression study by qPCR. The reactions were conducted in the ABI ViiA7 (Applied Biosystems™, Foster City, CA, EUA). The cycle conditions comprised 2 min at 50 °C, 20 s at 95 °C, then 40 cycles of 3 s at 95 °C and 30 s at 60 °C. […] The GAPDH, 18S and HPRT1 genes were used for normalization. All experiments were performed in DNase/RNase free conditions.
# [1] = test system: MRC-5 (human lung fibroblast); experiment: Cytotoxic activity, alamar blue assay, MRC-5 non-cancer cells; conditions: Homo sapiens, MRC5; MRC-5 non-cancer cells, 72h of incubation, alamar blue; with 95% confidence interval; read-out: IC50
# Description: HCT116 (human colon carcinoma), HepG2 (human hepatocellular carcinoma), HSC-3 (human oral squamous cell carcinoma), SCC-4 (human oral squamous cell carcinoma), SCC-9 (human oral squamous cell carcinoma), HL-60 (human promyelocytic leukemia), K-562 (human chronic myelogenous leukemia), B16-F10 (murine melanoma), MRC-5 (human lung fibroblast), WT SV40 MEF (wild-type immortalized mouse embryonic fibroblast) and BAD KO SV40 MEF (BAD gene knockout immortalized mouse embryonic fibroblast) cell lines were obtained from the American Type Culture Collection (ATCC, Manassas, VA, USA) and cultured in RPMI-1640 medium (Gibco-BRL, Gaithersburg, MD, USA) with 10% fetal bovine serum (Life, Carlsbad, CA, USA), 2 mM L-glutamine (Vetec Química Fina, Duque de Caxias, RJ, Brazil) and 50 μg/mL gentamycin (Life, Carlsbad, CA, USA). Adherent cells were collected by treatment with 0.25% trypsin EDTA solution (Gibco-BRL, Gaithersburg, MD, USA). All cell lines were cultured in flasks at 37°C in 5% CO2 and sub-cultured every 3-4 days to maintain exponential growth.
# (§1) Cell viability was quantified using the alamar blue assay, according to Ahmed et al.. Cells were inserted in 96-well plates for all experiments (7 x 10^4 cells/mL for adherent cells or 3 x 10^5 cells/mL for suspended cells in 100 μL of medium). […] Negative controls received the vehicle that was used for diluting the compounds tested.
# [2] = test system: PBMC (human peripheral blood mononuclear cells); experiment: Cytotoxic activity, alamar blue assay, PBMC non-cancer cells; conditions: Homo sapiens; PBMC non-cancer cells, 72h of incubation, alamar blue; with 95% confidence interval; read-out: IC50
# Description: PBMCs were washed and resuspended at a concentration of 3 x 10^5 cells/mL in RPMI 1640 medium with 20% fetal bovine serum, 2 mM glutamine and 50 μg/mL gentamycin at 37°C with 5% CO2. […] The Research Ethics Committee of the Oswaldo Cruz Foundation (Salvador, Bahia, Brazil) approved the experimental protocol (# 031019/2013). All participants signed a written informed consent to participate in the study.
# as §1
smiles,measurement,setting,value
COc1cccc2c1C(=O)c1c(O)c3c(c(O)c1C2=O)C[C@@](O)(C(=O)CO)C[C@@H]3O[C@H]1C[C@H](N)[C@H](O)[C@H](C)O1 [Doxorubicin],RQ ABL1,HCT116 cells,0.912
same,RQ AKT1,HCT116 cells,1.840
same,RQ AKT2,HCT116 cells,3.877
same,RQ APC,HCT116 cells,0.908
same,RQ BAX,HCT116 cells,3.274
same,RQ BCAR1,HCT116 cells,1.809
same,RQ BCL2L1,HCT116 cells,2.391
same,RQ BCL2L11,HCT116 cells,1.152
same,RQ BID,HCT116 cells,1.757
same,RQ BRAF,HCT116 cells,0.513
same,RQ CASP9,HCT116 cells,0.530
same,RQ CCND3,HCT116 cells,1.438
same,RQ CCNE1,HCT116 cells,0.894
same,RQ CDC42,HCT116 cells,1.271
same,RQ CDK2,HCT116 cells,1.257
same,RQ CDK4,HCT116 cells,0.983
same,RQ CDKN1A,HCT116 cells,2.853
same,RQ CDKN1B,HCT116 cells,0.766
same,RQ CRK,HCT116 cells,0.867
same,RQ CTNNB1,HCT116 cells,0.939
same,RQ DVL1,HCT116 cells,1.252
same,RQ E2F1,HCT116 cells,1.018
same,RQ ELK1,HCT116 cells,1.263
same,RQ ERBB2,HCT116 cells,2.605
same,RQ FAS,HCT116 cells,2.372
same,RQ FGF2,HCT116 cells,0.625
same,RQ GRB2,HCT116 cells,0.761
same,RQ GSK3B,HCT116 cells,1.342
same,RQ GUSB,HCT116 cells,5.0
same,RQ HRAS,HCT116 cells,0.691
same,RQ ITGB1,HCT116 cells,0.489
same,RQ ITGB3,HCT116 cells,5.579
same,RQ KRAS,HCT116 cells,0.951
same,RQ MAPK1,HCT116 cells,0.903
same,RQ MAPK8,HCT116 cells,1.185
same,RQ MAPK14,HCT116 cells,0.786
same,RQ MDM2,HCT116 cells,1.479
same,RQ MYC,HCT116 cells,0.876
same,RQ NFKB1,HCT116 cells,0.784
same,RQ NFKB2,HCT116 cells,1.250
same,RQ NRAS,HCT116 cells,0.556
same,RQ PIK3CA,HCT116 cells,0.409
same,RQ RB1,HCT116 cells,0.532
same,RQ RELA,HCT116 cells,0.862
same,RQ RHOA,HCT116 cells,0.900
same,RQ SRC,HCT116 cells,1.383
same,RQ TCF3,HCT116 cells,1.135
same,RQ TGFB1,HCT116 cells,0.495
same,RQ TGFBR1,HCT116 cells,1.216
same,RQ VEGFA,HCT116 cells,0.610
same,RQ BCL2,HCT116 cells; listed as DOX,3.1 and 3.090
same,RQ CCND1,HCT116 cells; listed as DOX,1.1 and 1.124
same,RQ CDH1,HCT116 cells; listed as DOX,7.1 and 7.107
same,RQ CDKN2A,HCT116 cells; listed as DOX,1.8 and 1.793
same,RQ CYCS,HCT116 cells; listed as DOX,1.0 and 0.993
same,RQ EGFR,HCT116 cells; listed as DOX,0.8 and 0.831
same,RQ FADD,HCT116 cells; listed as DOX,1.1 and 1.049
same,RQ FN1,HCT116 cells; listed as DOX,3.6 and 3.575
same,RQ FOS,HCT116 cells; listed as DOX,11.8 and 11.834
same,RQ FYN,HCT116 cells; listed as DOX,1.3 and 1.248
same,RQ FZD1,HCT116 cells; listed as DOX,1.0 and 0.994
same,RQ IGF1R,HCT116 cells; listed as DOX,1.4 and 1.389
same,RQ ITGA2B,HCT116 cells; listed as DOX,4.5 and 4.514
same,RQ ITGAV,HCT116 cells; listed as DOX,1.3 and 1.265
same,RQ JUN,HCT116 cells; listed as DOX,4.1 and 4.073
same,RQ MAP2K1,HCT116 cells; listed as DOX,0.7 and 0.681
same,RQ MAP3K5,HCT116 cells; listed as DOX,1.0 and 1.006
same,RQ MAPK3,HCT116 cells; listed as DOX,2.8 and 2.758
same,RQ NFKBIA,HCT116 cells; listed as DOX,2.3 and 2.326
same,RQ PIK3R1,HCT116 cells; listed as DOX,2.0 and 1.999
same,RQ PTEN,HCT116 cells; listed as DOX,1.8 and 1.750
same,RQ PTK2,HCT116 cells; listed as DOX,1.2 and 1.182
same,RQ PTK2B,HCT116 cells; listed as DOX,3.4 and 3.368
same,RQ RAC1,HCT116 cells; listed as DOX,0.9 and 0.845
same,RQ RAF1,HCT116 cells; listed as DOX,2.0 and 2.027
same,RQ SHC1,HCT116 cells; listed as DOX,0.6 and 0.640
same,RQ SMAD4,HCT116 cells; listed as DOX,1.0 and 0.963
same,RQ SOS1,HCT116 cells; listed as DOX,0.7 and 0.741
same,RQ SPP1,HCT116 cells; listed as DOX,1.2 and 1.165
same,RQ TGFBR2,HCT116 cells; listed as DOX,0.9 and 0.914
same,RQ TP53,HCT116 cells; listed as DOX,3.3 and 3.250
same,IC50,[1],1.3 µM
same,IC50,[2],5.4 µM

# — PMC5732813, “Novel piplartine-containing ruthenium complexes: synthesis, cell growth inhibition, apoptosis induction and ROS production on HCT116 cells” (Oncotarget, 2017)
